Assay results taken from PubChem BioAssay (NCI).
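Dose response: 5 concentrations. Exposure: 48 h. Format: 96-well plates. Endpoint: linear interpolation; highest concentration if not reached. GI50 = concentration required for 50% inhibition of growth. TGI: concentration producing complete growth inhibition.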

Tests used:
Experiment in all cases: NCI-60 cell line screen, 48 h
786-0 renal = test system: 786-0 renal
A498 renal = test system: A498 renal
A549 NSCLC = test system: A549 NSCLC
ACHN renal = test system: ACHN renal
BT-549 breast = test system: BT-549 breast
CAKI-1 renal = test system: CAKI-1 renal
CCRF-CEM leukemia = test system: CCRF-CEM leukemia
COLO 205 colon = test system: COLO 205 colon
DU-145 prostate = test system: DU-145 prostate
EKVX NSCLC = test system: EKVX NSCLC
HCC-2998 colon = test system: HCC-2998 colon
HCT-116 colon = test system: HCT-116 colon
HCT-15 colon = test system: HCT-15 colon
HL-60(TB) leukemia = test system: HL-60(TB) leukemia
HOP-62 NSCLC = test system: HOP-62 NSCLC
HOP-92 NSCLC = test system: HOP-92 NSCLC
HS 578T breast = test system: HS 578T breast
HT29 colon = test system: HT29 colon
IGROV1 ovarian = test system: IGROV1 ovarian
K-562 leukemia = test system: K-562 leukemia
KM12 colon = test system: KM12 colon
LOX IMVI melanoma = test system: LOX IMVI melanoma
M14 melanoma = test system: M14 melanoma
MALME-3M melanoma = test system: MALME-3M melanoma
MCF7 breast = test system: MCF7 breast
MDA-MB-231 breast = test system: MDA-MB-231 breast
MDA-MB-435 = test system: MDA-MB-435
MOLT-4 leukemia = test system: MOLT-4 leukemia
NCI-H226 lung = test system: NCI-H226 lung
NCI-H23 lung = test system: NCI-H23 lung
NCI-H460 lung = test system: NCI-H460 lung
NCI-H522 lung = test system: NCI-H522 lung
NCI/ADR-RES ovarian = test system: NCI/ADR-RES ovarian
OVCAR-3 ovarian = test system: OVCAR-3 ovarian
OVCAR-4 ovarian = test system: OVCAR-4 ovarian
OVCAR-5 ovarian = test system: OVCAR-5 ovarian
OVCAR-8 ovarian = test system: OVCAR-8 ovarian
PC-3 prostate = test system: PC-3 prostate
RPMI-8226 leukemia = test system: RPMI-8226 leukemia
RXF 393 renal = test system: RXF 393 renal
SF-268 CNS = test system: SF-268 CNS
SF-295 CNS = test system: SF-295 CNS
SF-539 CNS = test system: SF-539 CNS
SK-MEL-2 melanoma = test system: SK-MEL-2 melanoma
SK-MEL-28 melanoma = test system: SK-MEL-28 melanoma
SK-MEL-5 melanoma = test system: SK-MEL-5 melanoma
SK-OV-3 ovarian = test system: SK-OV-3 ovarian
SN12C renal = test system: SN12C renal
SNB-19 CNS = test system: SNB-19 CNS
SNB-75 CNS = test system: SNB-75 CNS
SR leukemia = test system: SR leukemia
SW-620 colon = test system: SW-620 colon
T-47D breast = test system: T-47D breast
TK-10 renal = test system: TK-10 renal
U251 CNS = test system: U251 CNS
UACC-257 melanoma = test system: UACC-257 melanoma
UACC-62 melanoma = test system: UACC-62 melanoma
UO-31 renal = test system: UO-31 renal

CC1=NN(c2nc(N)nc(/C=C\c3ccccc3)n2)C(C)(C)C1 gave a GI50 (786-0 renal) of 15 µM, a TGI (786-0 renal) of 29.3 µM and a GI50 (A498 renal) of 5.58 µM. For the same compound, the TGI (A498 renal) was 20.7 µM, the GI50 (A549 NSCLC) was 15.8 µM and the TGI (A549 NSCLC) was 38.3 µM. The GI50 (ACHN renal) was 9.46 µM, the TGI (ACHN renal) was 28.4 µM and the GI50 (BT-549 breast) was 5.09 µM. The TGI (BT-549 breast) was 19.1 µM, the GI50 (CAKI-1 renal) was 15.4 µM and the TGI (CAKI-1 renal) was 30.9 µM. For the same compound, the GI50 (CCRF-CEM leukemia) was 2.99 µM, the TGI (CCRF-CEM leukemia) was 34.7 µM and the GI50 (COLO 205 colon) was 2.84 µM. It also gave a TGI (COLO 205 colon) of 14 µM, a GI50 (DU-145 prostate) of 3.16 µM and a TGI (DU-145 prostate) of 15.5 µM. It also gave a GI50 (EKVX NSCLC) of 12.5 µM, a TGI (EKVX NSCLC) of 45.8 µM and a GI50 (HCC-2998 colon) of 11.9 µM. For the same compound, the TGI (HCC-2998 colon) was 26.1 µM, the GI50 (HCT-116 colon) was 2.76 µM and the TGI (HCT-116 colon) was 14.2 µM. It also gave a GI50 (HCT-15 colon) of 3.27 µM, a TGI (HCT-15 colon) of 44.7 µM and a GI50 (HL-60(TB) leukemia) of 10.8 µM. For the same compound, the TGI (HL-60(TB) leukemia) was 39.5 µM, the GI50 (HOP-62 NSCLC) was 14.9 µM and the TGI (HOP-62 NSCLC) was 29.7 µM. It also gave a GI50 (HOP-92 NSCLC) of 19.5 µM, a TGI (HOP-92 NSCLC) of 39.5 µM and a GI50 (HS 578T breast) of 13.5 µM. It also gave a TGI (HS 578T breast) of 77.5 µM, a GI50 (HT29 colon) of 2.47 µM and a TGI (HT29 colon) of 14 µM. It also gave a GI50 (IGROV1 ovarian) of 8.99 µM, a TGI (IGROV1 ovarian) of 24 µM and a GI50 (K-562 leukemia) of 3.98 µM. It also gave a TGI (K-562 leukemia) of 22.1 µM, a GI50 (KM12 colon) of 1.59 µM and a TGI (KM12 colon) of 10.5 µM. The GI50 (LOX IMVI melanoma) was 1.99 µM, the TGI (LOX IMVI melanoma) was 15 µM and the GI50 (M14 melanoma) was 9.76 µM. It also gave a TGI (M14 melanoma) of 23.7 µM, a GI50 (MALME-3M melanoma) of 10.7 µM and a TGI (MALME-3M melanoma) of 29.4 µM. For the same compound, the GI50 (MCF7 breast) was 8 µM, the TGI (MCF7 breast) was 25.5 µM and the GI50 (MDA-MB-231 breast) was 6.46 µM. It also gave a TGI (MDA-MB-231 breast) of 22.5 µM, a GI50 (MDA-MB-435) of 1.97 µM and a TGI (MDA-MB-435) of 7.13 µM. For the same compound, the GI50 (MOLT-4 leukemia) was 13 µM, the TGI (MOLT-4 leukemia) was 40.7 µM and the GI50 (NCI-H226 lung) was 13.7 µM. The TGI (NCI-H226 lung) was 28.6 µM, the GI50 (NCI-H23 lung) was 4.37 µM and the TGI (NCI-H23 lung) was 18 µM. It also gave a GI50 (NCI-H460 lung) of 13.1 µM, a TGI (NCI-H460 lung) of 34.2 µM and a GI50 (NCI-H522 lung) of 3.14 µM. The TGI (NCI-H522 lung) was 13.5 µM, the GI50 (NCI/ADR-RES ovarian) was 3.75 µM and the TGI (NCI/ADR-RES ovarian) was 24.7 µM. It also gave a GI50 (OVCAR-3 ovarian) of 3.73 µM, a TGI (OVCAR-3 ovarian) of 16.1 µM and a GI50 (OVCAR-4 ovarian) of 4.16 µM. It also gave a TGI (OVCAR-4 ovarian) of 16.6 µM, a GI50 (OVCAR-5 ovarian) of 20.7 µM and a TGI (OVCAR-5 ovarian) of 36.5 µM. For the same compound, the GI50 (OVCAR-8 ovarian) was 5.33 µM, the TGI (OVCAR-8 ovarian) was 39 µM and the GI50 (PC-3 prostate) was 4.41 µM. For the same compound, the TGI (PC-3 prostate) was 19.7 µM, the GI50 (RPMI-8226 leukemia) was 3.02 µM and the TGI (RPMI-8226 leukemia) was 15 µM. It also gave a GI50 (RXF 393 renal) of 5.8 µM, a TGI (RXF 393 renal) of 20.1 µM and a GI50 (SF-268 CNS) of 6.1 µM. It also gave a TGI (SF-268 CNS) of 24.4 µM, a GI50 (SF-295 CNS) of 11.7 µM and a TGI (SF-295 CNS) of 30.5 µM. It also gave a GI50 (SF-539 CNS) of 6.25 µM, a TGI (SF-539 CNS) of 22.4 µM and a GI50 (SK-MEL-2 melanoma) of 11.2 µM. The TGI (SK-MEL-2 melanoma) was 30.6 µM, the GI50 (SK-MEL-28 melanoma) was 9.41 µM and the TGI (SK-MEL-28 melanoma) was 22.3 µM. It also gave a GI50 (SK-MEL-5 melanoma) of 16 µM, a TGI (SK-MEL-5 melanoma) of 32.3 µM and a GI50 (SK-OV-3 ovarian) of 6.66 µM. The TGI (SK-OV-3 ovarian) was 36.1 µM, the GI50 (SN12C renal) was 13.1 µM and the TGI (SN12C renal) was 26.6 µM. It also gave a GI50 (SNB-19 CNS) of 20.3 µM, a TGI (SNB-19 CNS) of 42.9 µM and a GI50 (SNB-75 CNS) of 6.36 µM. For the same compound, the TGI (SNB-75 CNS) was 25.6 µM, the GI50 (SR leukemia) was 6.12 µM and the TGI (SR leukemia) was 27.8 µM. For the same compound, the GI50 (SW-620 colon) was 4.48 µM, the TGI (SW-620 colon) was 44.2 µM and the GI50 (T-47D breast) was 2.5 µM. It also gave a TGI (T-47D breast) of 15.1 µM, a GI50 (TK-10 renal) of 7.76 µM and a TGI (TK-10 renal) of 22.2 µM. It also gave a GI50 (U251 CNS) of 3.19 µM, a TGI (U251 CNS) of 28.9 µM and a GI50 (UACC-257 melanoma) of 5.73 µM. The TGI (UACC-257 melanoma) was 20.1 µM, the GI50 (UACC-62 melanoma) was 3.88 µM and the TGI (UACC-62 melanoma) was 16.4 µM. It also gave a GI50 (UO-31 renal) of 13.5 µM and a TGI (UO-31 renal) of 28.5 µM.
